A value given as a limit tells only on which side of the number the result lay.

The record followed here is patent publication US20230124361A1, “SMALL MOLECULE STING ANTAGONISTS” (CURADEV PHARMA PVT. LTD., priority 2020, published 2023).

T1 sequence (Q86WV6 whole entry R71H/G230A/H232R/R293Q): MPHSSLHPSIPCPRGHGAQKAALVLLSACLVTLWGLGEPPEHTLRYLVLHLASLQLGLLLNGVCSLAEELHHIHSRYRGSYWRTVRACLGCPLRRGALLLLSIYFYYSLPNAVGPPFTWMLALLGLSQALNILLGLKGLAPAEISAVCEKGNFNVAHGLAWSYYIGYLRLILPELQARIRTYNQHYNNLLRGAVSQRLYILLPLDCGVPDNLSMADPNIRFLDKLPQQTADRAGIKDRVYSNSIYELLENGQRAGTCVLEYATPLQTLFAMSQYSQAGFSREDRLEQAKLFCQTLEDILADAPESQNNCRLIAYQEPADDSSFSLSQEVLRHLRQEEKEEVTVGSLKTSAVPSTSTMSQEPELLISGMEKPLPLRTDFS

This assay addresses T1, STING (Homo sapiens, UniProt Q86WV6, G230A/H232R/R293Q/R71H).
T1 construct: host or cells: THP1-Dual cells (human THP-1 monocyte line with Lucia/SEAP reporters)
Kind of assay: Reporter gene expression assay in THP1-Dual cells (IRF pathway Lucia luciferase, 2',3'-cGAMP stimulation). Type of assay: cell-based. As to conditions: 10 min preincubation, 5 μM 2',3'-cGAMP, 20 hr, IRF reporter QUANTI-Luc, read-out: THP-1 (HAQ) Activity. How it is done:
Reporter Gene Expression Assay in THP-1 Cells
THP1-Dual™ cells (Invivogen) were derived from the human THP-1 monocyte cell line by stable integration of two inducible reporter constructs. As a result, THP1-Dual™ cells allow the simultaneous study of the IRF pathway, by assessing the activity of a secreted luciferase (Lucia) and the NF-κB pathway, by monitoring the activity of secreted SEAP. 5×10^4 THP1-Dual™ cells were seeded in 384-well plates in growth medium and preincubated with novel compounds for 10 minutes followed by stimulation with 5 μM 2′,3′-cGAMP. After 20 hr of stimulation the supernatant was removed and the IRF pathway reporter protein was readily measured in the cell culture supernatant using QUANTI-Luc™ (Invivogen), a luciferase detection reagent on a Spectramax i3X luminometer.
In the tables below, IC50 value ranges for exemplary compounds are given. The IC50 ranges are indicated as “A” for values less than or equal to 1 μM, “B” for values greater than 1 μM and less than or equal to 10 μM, and “C” for values greater than 10 μM.
Regarding `O=C(Nc1ccc2c(c1)OCC(=O)N2Cc1c(F)cccc1Cl)Nc1ccc2cc[nH]c2c1` [Example 93, l-(4-(2-chloro-6-fluorobenzy 1)-3-oxo-3,4-dihydro-2H-benzo[b][i, 4]oxazin-7-yl)-3-(1H-indol-6-yl)urea], the IC50 fell in the range of 1000 to 10000 nM.

For `O=C(Nc1ccc2c(c1)OCC(=O)N2Cc1ccc(F)cc1Cl)Nc1ccc2cc[nH]c2c1` [Example 94, 1-(4-(2-chloro-4-fluorobenzy 1)-3-oxo-3,4-dihydro-2H-benzo[b][1,4]oxazin-7-yl)-3-(1H-indol-6-yl)urea], the IC50 was at most 1000 nM.

As for `O=C(Nc1ccc2c(c1)OCC(=O)N2Cc1cccc(F)c1F)Nc1ccc2cc[nH]c2c1` [Example 95, 1-(4-(2,3-difluorobenzyl)-3-oxo-3,4-dihydro-2H-benzo[b][1, 4]oxazin-7-yl)-3-(1H-indol-6-yl)urea], the IC50 is at most 1000 nM.

`O=C(Nc1ccc2c(c1)OCC(=O)N2Cc1c(F)cccc1F)Nc1ccc2cc[nH]c2c1` [Example 96, 1-(4-(2,6-difluorobenzyl)-3-oxo-3,4-dihydro-2H-benzo [b][1, 4]oxazin-7-yl)-3-(1H-indol-6-yl)urea]: the IC50 is above 10000 nM.

Consider `O=C(Nc1ccc2c(c1)OCC(=O)N2CC1COc2ccccc2O1)Nc1ccc2cc[nH]c2c1` (stereo not drawn) [Example 97, 1-(4-((2,3-dihydrobenzo[b][1,4]dioxin-2-yl)methyl)-3-oxo-3,4-dihydro-2H-benzo[b][1,4]oxazin-7-yl)-3-(1H-indol-6-yl)urea], for which the IC50 was at most 1000 nM.

Take `NC(=O)c1cccc(CN2C(=O)COc3cc(NC(=O)Nc4ccc5cc[nH]c5c4)ccc32)c1` [Example 98, 3-((7-(3-(1H-indol-6-yl)ureido)-3-oxo-2,3-dihydro-4H-benzo[b][1,4]oxazin-4-yl)methyl)benzamide]: the IC50 is 1000 to 10000 nM.

In the case of `O=C(Nc1ccc2c(c1)OCC(=O)N2Cc1cc(Cl)cc(C(F)(F)F)c1)Nc1ccc2cc[nH]c2c1` [Example 99, l-(4-(3-chloro-5-(trifluoromethyl)benzyl)-3-oxo-3,4-dihydro-2H-benzo[b][1, 4]oxazin-7-yl)-3-(1H-indol-6-yl)urea], the IC50 is at most 1000 nM.

As for `O=C(Nc1ccc2c(c1)OCC(=O)N2CCOc1ccccc1Cl)Nc1ccc2cc[nH]c2c1` [Example 100, 1-(4-(2-(2-chlorophenoxy)ethyl)-3-oxo-3,4-dihydro-2H-benzo[b][1,4]oxazin-7-yl)-3-(1H-indol-6-yl)urea], the IC50 lay in the range of 1000 to 10000 nM.

`O=C(Nc1ccc2c(c1)OCC(=O)N2Cc1ccccc1-c1ccccc1)Nc1ccc2cc[nH]c2c1` [Example 101, 1-(4-([1,1′-biphenyl]-2-ylmethyl)-3-oxo-3,4-dihydro-2H-benzo[b][1,4]oxazin-7-yl)-3-(1H-indol-6-yl)urea]: the IC50 was at most 1000 nM.

With `O=C(Nc1ccc2c(c1)OCC(=O)N2Cc1cc(F)cc(Cl)c1)Nc1ccc2cc[nH]c2c1` [Example 102, 1-(4-(3-chloro-5-fluorobenzyl)-3-oxo-3,4-dihydro-2H-benzo[b][1,4]oxazin-7-yl)-3-(1H-indol-6-yl)urea], the IC50 was at most 1000 nM.

`O=C(Nc1ccc2c(c1)OCC(=O)N2Cc1cc2c(cc1Cl)OCO2)Nc1ccc2cc[nH]c2c1` [Example 103, 1-(4-((6-chlorobenzo[d][1,3]dioxol-5-yl)methyl)-3-oxo-3,4-dihydro-2H-benzo[b][1,4]oxazin-7-yl)-3-(1H-indol-6-yl)urea]: the IC50 was at most 1000 nM.

Regarding `O=C(Nc1ccc2c(c1)OCC(=O)N2Cc1ccc(C(F)(F)F)nc1)Nc1ccc2cc[nH]c2c1` [Example 104, 1-(1H-indol-6-yl)-3-(3-oxo-4-((6-(trifluoromethyl)pyridin-3-yl)methyl)-3,4-dihydro-2H-benzo[b][1,4]oxazin-7-yl)urea], the IC50 is at most 1000 nM.

As for `O=C(Nc1ccc2c(c1)OCC(=O)N2Cc1cc(F)cc(F)c1)Nc1ccc2cc[nH]c2c1` [Example 105, 1-(4-(3,5-difluorobenzyl)-3-oxo-3,4-dihydro-2H-benzo[b][1,4]oxazin-7-yl)-3-(1H-indol-6-yl)urea], the IC50 was at most 1000 nM.

Take `O=C(Nc1ccc2c(c1)OCC(=O)N2Cc1ccc(SC(F)(F)F)cc1)Nc1ccc2cc[nH]c2c1` [Example 106, 1-(1H-indol-6-yl)-3-(3-oxo-4-(4-((trifluoromethyl)thio)benzyl)-3,4-dihydro-2H-benzo[b][1,4]oxazin-7-yl)urea]: the IC50 was at most 1000 nM.

As to `O=C(Nc1ccc2c(c1)OCC(=O)N2Cc1ccc(OC(F)(F)F)c(Cl)c1)Nc1ccc2cc[nH]c2c1` [Example 107, 1-(4-(3-chloro-4-(trifluoromethoxy)benzyl)-3-oxo-3,4-dihydro-2H-benzo[b][1,4]oxazin-7-yl)-3-(1H-indol-6-yl)urea], the IC50 was at most 1000 nM.

Take `Cc1cc(CN2C(=O)COc3cc(NC(=O)Nc4ccc5cc[nH]c5c4)ccc32)ccc1F` [Example 108, 1-(4-(4-fluoro-3-methylbenzyl)-3-oxo-3,4-dihydro-2H-benzo[b][1,4]oxazin-7-yl)-3-(1H-indol-6-yl)urea]: the IC50 was at most 1000 nM.

`O=C(Nc1ccc2c(c1)OCC(=O)N2Cc1ccc(OC(F)F)cc1)Nc1ccc2cc[nH]c2c1` [Example 109, 1-(4-(4-(difluoromethoxy)benzyl)-3-oxo-3,4-dihydro-2H-benzo[b][1,4]oxazin-7-yl)-3-(1H-indol-6-yl)urea]: the IC50 is at most 1000 nM.

As to `O=C(Nc1ccc2c(c1)OCC(=O)N2CCc1ccccc1Cl)Nc1ccc2cc[nH]c2c1` [Example 110, 1-(4-(2-chlorophenethyl)-3-oxo-3,4-dihydro-2H-benzo[b][1,4]oxazin-7-yl)-3-(1H-indol-6-yl)urea], the IC50 lay in the range of 1000 to 10000 nM.

Regarding `O=C(Nc1ccc2c(c1)OCC(=O)N2Cc1ccc(F)c(Cl)c1)Nc1ccc2cc[nH]c2c1` [Example 111, 1-(4-(3-chloro-4-fluorobenzyl)-3-oxo-3,4-dihydro-2H-benzo[b][1,4]oxazin-7-yl)-3-(1H-indol-6-yl)urea], the IC50 is 1000 to 10000 nM.

`O=C(Nc1ccc2c(c1)OCC(=O)N2Cc1cc(F)cc(C(F)(F)F)c1)Nc1ccc2cc[nH]c2c1` [Example 112, 1-(4-(3-fluoro-5-(trifluoromethyl)benzyl)-3-oxo-3,4-dihydro-2H-benzo[b][1,4]oxazin-7-yl)-3-(1H-indol-6-yl)urea]: the IC50 was at most 1000 nM.

In the case of `O=C(Nc1ccc2c(c1)OCC(=O)N2Cc1ccccc1C(F)(F)F)Nc1ccc2cc[nH]c2c1` [Example 113, 1-(1H-indol-6-yl)-3-(3-oxo-4-(2-(trifluoromethyl)benzyl)-3,4-dihydro-2H-benzo[b][1,4]oxazin-7-yl)urea], the IC50 was in the range of 1000 to 10000 nM.

For the compound `O=C(Nc1ccc2c(c1)OCC(=O)N2Cc1ccc2c(c1)OCO2)Nc1ccc2cc[nH]c2c1` [Example 114, 1-(4-(benzo[d][1,3]dioxol-5-ylmethyl)-3-oxo-3,4-dihydro-2H-benzo[b][1,4]oxazin-7-yl)-3-(1H-indol-6-yl)urea], the IC50 was at most 1000 nM.

Consider `COc1ccc(OC)c(CN2C(=O)COc3cc(NC(=O)Nc4ccc5cc[nH]c5c4)ccc32)c1` [Example 115, 1-(4-(2,5-dimethoxybenzyl)-3-oxo-3,4-dihydro-2H-benzo[b][1,4]oxazin-7-yl)-3-(1H-indol-6-yl)urea], for which the IC50 is 1000 to 10000 nM.

As for `N#Cc1cccc(CN2C(=O)COc3cc(NC(=O)Nc4ccc5cc[nH]c5c4)ccc32)c1` [Example 116, l-(4-(3-cyanobenzyl)-3-oxo-3,4-dihydro-2H-benzo[b][1, 4]oxazin-7-yl)-3-(1H-indol-6-yl)urea], the IC50 fell in the range of 1000 to 10000 nM.

For `O=C(Nc1ccc2c(c1)OCC(=O)N2Cc1nc2ccccc2s1)Nc1ccc2cc[nH]c2c1` [Example 117, 1-(4-(benzo[d]thiazol-2-ylmethyl)-3-oxo-3,4-dihydro-2H-benzo[b][1,4]oxazin-7-yl)-3-(1H-indol-6-yl)urea], the IC50 was at most 1000 nM.

On to `O=C(Nc1ccc2c(c1)OCC(=O)N2Cc1ccc(C(=O)O)cn1)Nc1ccc2cc[nH]c2c1` [Example 118, 6-((7-(3-(1H-indol-6-yl)ureido)-3-oxo-2,3-dihydro-4H-benzo[b][1,4]oxazin-4-yl)methyl)nicotinic acid], for which the IC50 was above 10000 nM.

Consider `O=C(Nc1ccc2c(c1)OCC(=O)N2Cc1ccc2nsnc2c1)Nc1ccc2cc[nH]c2c1` [Example 119, 1-(4-(benzo[c][1,2,5]thiadiazol-5-ylmethyl)-3-oxo-3,4-dihydro-2H-benzo[b][1,4]oxazin-7-yl)-3-(1H-indol-6-yl)urea], for which the IC50 lay within 1000 to 10000 nM.

Regarding `N#Cc1ccc(CN2C(=O)COc3cc(NC(=O)Nc4ccc5cc[nH]c5c4)ccc32)c(F)c1` [Example 120, 1-(4-(4-cyano-2-fluorobenzyl)-3-oxo-3,4-dihydro-2H-benzo[b][1,4]oxazin-7-yl)-3-(1H-indol-6-yl)urea], the IC50 lay within 1000 to 10000 nM.

`O=C(Nc1ccc2c(c1)OCC(=O)N2Cc1nc(-c2ccccc2)no1)Nc1ccc2cc[nH]c2c1` [Example 121, 1-(1H-indol-6-yl)-3-(3-oxo-4-((3-phenyl-1,2,4-oxadiazol-5-yl)methyl)-3,4-dihydro-2H-benzo[b][1,4]oxazin-7-yl)urea]: the IC50 was 1000 to 10000 nM.

On to `CS(=O)(=O)c1cc(Cl)ccc1CN1C(=O)COc2cc(NC(=O)Nc3ccc4cc[nH]c4c3)ccc21` [Example 122, 1-(4-(4-chloro-2-(methylsulfonyl)benzyl)-3-oxo-3,4-dihydro-2H-benzo[b][1,4]oxazin-7-yl)-3-(1H-indol-6-yl)urea], for which the IC50 was 1000 to 10000 nM.
